Measured values taken from patent US20110195910A1, “USE OF TOCOTRIENOL COMPOSITION FOR THE PREVENTION OF CANCER” (DAVOS LIFE SCIENCE PTE. LTD., priority 2008, published 2011).

Experiments:
DU145 cells = assay: Western blotting of CD44, DU145 cells; format: cell-based; conditions: doses with minimum effect on viability
Protocol: (§1) 5.1.5 Western blotting was carried out as described above under 1.1.5. The membrane was incubated with primary antibodies directed against CD133 (Miltenyi Biotec, Auburn, Calif.), Bcl-2, PARP, cleaved caspase 3, 7, 9 (Cell Signaling, Technology Inc, Beverly, Mass.), CD44 and β-actin (Santa Cruz Biotechnology, Santa Cruz, Calif.). After washing with TBS-T, the membrane was incubated with secondary antibody against either mouse or rabbit IgG and the signals were visualized using ECL plus western blotting system (Amersham, Piscataway, N.J.).

MGH-U1 cells = assay: Western blotting of CD44, MGH-U1 cells; format: cell-based; conditions: bladder cancer cells
Protocol: as §1

MDA-MB-231 cells = assay: Matrigel-invasion assay, MDA-MB-231 cells; format: cell-based, human; conditions: MDA-MB-231, 24 hrs
Protocol: (§2) 1.1.4 Matrigel-invasion assay—Matrigel-invasion assay was performed according to a previously published method with modifications. Briefly, cells were pre-incubated in a serum-free RPMI 1640 medium with or without γ-T3 isomers for 24 hrs. Cells (2.5×10^5) resuspended in 500 μl of serum-free RPMI 1640 containing 0.1% bovine serum albumin (BSA) were then added to the upper chamber of a 8 μm pore size insert (Millipore, Bedford, Mass.) manually coated with Matrigel (0.5 mg/ml) (BD Bioscience, Bedford, Mass.). Five hundred μl of invasion buffer containing fibronectin (10 μg/ml) and RPMI 1640 supplemented with 10% FCS were added in the lower chamber as a chemo-attractant. Cells were incubated at 37° C. for 24 hrs in 5% CO2 humidified conditions. At the end of incubation period, inserts were stained with Diff-Quick staining solution (Fischer Scientific). Non-invaded cells on the inside of the insert were scraped off with a cotton swab. Cell invasions were then examined by a phase-contrast microscope. The invaded cells were extracted using extraction buffer (Millipore, Bedford, Mass.) and the cell number was estimated based on absorbance at 595 nm.
3.1.7 Flow cytometry was carried out as described above under item 1.1.3. Matrigel-invasion assay was carried out as described above under item 1.1.4. Western blotting was carried out as described above under item 1.1.5.

[1] = system: bladder cancer cell line MGH-U1; assay: Spheroid formation assay, MGH-U1 cells; format: cell-based
Protocol: (§3) 5.1.7 Spheroid formation assay—Spheroid formation assay was performed with a protocol modified from previous study (Folkins C, p3560). Briefly, cells were first trypsinized, washed with 1× PBS and resuspended in DMEM F12 medium. Two hundred cells were added into each well of a 24-well-plate pre-coated with polyHEMA (Sigma, St. Louis, Mo.). Cells will be grown in DMEM/F12 mem (Invitrogen, Carlsbad, Calif.) supplemented with 4 μg/mL insulin (Sigma, St. Louis, Mo.), B27 (Invitrogen, Carlsbad, Calif.), 20 ng/mL EGF (Sigma, St. Louis, Mo.), and 20 ng/mL basic FGF (Invitrogen, Carlsbad, Calif.). Fresh medium with the above supplements was added every day. γ-T3 was added at indicated time points and the number of spheroids was counted at day 14 of the assay or at the end of the treatment. Each experiment was repeated in triplicates and each data point represented the mean and standard derivation.

[2] = Serum-based toxicity assay; format: in vivo, C57BL/6 black mice; conditions: 5 dose i.p. injections per week containing 1 mg
Protocol: 4.1.8 Serum-based toxicity assay—Ten C57BL/6 black mice were given 5 dose intraperitoneal (i.p) injections per week containing 1 mg of γ-tocotrienol or DMSO blank. Mice were sacrificed by cardiac bleeding and the serum was extracted by method described above. Serum level of the biomarkers albumin, creatine, alanine transaminase ALT, aspartate aminotransferase AST, urea and alkaline phosphatase ALP were then measured by the colorimetric-based detection kits purchased from RANDOX laboratories Ltd. (Crumlin, United Kingdom).

PC-3 cells [3] = assay: Matrigel-invasion assay, PC-3 cells; format: cell-based, human; conditions: γ-T3 at IC50, 24 hrs
Protocol: as §2
2.1.4 Flow cytometry was carried out as described above under item 1.1.3. Matrigel-invasion assay was carried out as described above under item 1.1.4. Western blotting was carried out as described above under item 1.1.5.

[4] = system: prostate intraepithelial neoplasia (PIN); assay: Prevention of prostate intraepithelial neoplasia (PIN) in prostate cancer mouse models; format: in vivo; conditions: fed mice, FIG. 8
Protocol: For experiments, 5-week old prostate cancer mouse models previously published (Gabril, M. Y., Duan, W., et al., Molecular Therapy (2005), vol. 11, no. 3, p. 348; Greenberg et al., Proc Natl Acad Sci USA (1995), vol. 92, pp. 3439-3443; Duan, W., Gabril, M. Y., et al., Oncogene (2005) 24, 1510-1524; Wang S, Gao J, et al., Cancer Cell., 2003, vol. 4, no. 3, pp. 209-21; Gabril, M. Y., Onita, T., et al., Gene Ther., 2002, vol. 9, no. 23, pp. 1589-99) are used. All animal experiments were conducted according to standard protocols approved by Animal Care Committee. Genotyping was performed in PSP-TGMAP, and KIMAP mice were identified by a quick PCR genotyping protocol as previously reported (see above references referred to under item 6).
In one exemplary experiment, the animals are given 1 mg of gamma tocotrienol per day for 30 weeks via oral gavage. At the end of 10, 20 and 30 weeks, animals are sacrificed. The prostate along with the male accessory glands, i.e., the ventral and dorsolateral prostate lobes, seminal vesicles, and coagulation gland, were dissected out separately for histopathological characterization of prostate tumor development, prostate intraepithelial neoplasia (PIN) development and microinvasion. […]

PC-3 cells [5] = assay: Spheroid (prostasphere) formation assay, PC-3 cells; format: cell-based; conditions: 5 μg/ml, untreated average 21 per well
Protocol: as §3

Q: With `CC(C)=CCC/C(C)=C/CC/C(C)=C/CCC1(C)CCc2cc(O)c(C)c(C)c2O1` (centres unmarked) [γ-T3, 7,8-dimethyltocotrienol] as the compound, how does the CD44 expression (DU145 cells) read?
A: suppression of CD44 expression

Q: What about the CD44 expression (MGH-U1 cells) of the same compound?
A: downregulate CD44 expression

Q: What about the “invasion capability compared to untreated control” value (MDA-MB-231 cells) of the same compound?
A: at least 2 -time lower

Q: What about the “inhibition in spheroid formation” value [1] of the same compound?
A: 100%

Q: And the “toxicological changes in serum parameters (Alb, Cre, ALT, AST, Ure, ALP)” value [2]?
A: no toxicological changes

Q: What about the “invasion capability compared to untreated control” value (PC-3 cells [3]) of the same compound?
A: at least 2.5 -time lower

Q: What about the “development of prostate intraepithelial neoplasia (PIN)” value [4] of the same compound?
A: prevent the formation of prostate intraepithelial neoplasia (PIN)

Q: What about the prostasphere formation (PC-3 cells [5]) of the same compound?
A: no prostasphere
